# Assay results published in the supplement of paper PMC10307832.
# What was measured:
# Assay in all cases: relative viability (nuclei count vs DMSO), 5 days (fraction); higher = more cells survive
# CAL-12T = system: CAL-12T
# Outline: (§1)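 Lung cancer cell lines, seeded in 1536-well plates, were treated the following day by pin tool with a single drug or with five library-drug doses (not always all listed) in √10 steps on top of a fixed anchor-drug dose. Cells were fixed and nuclei stained in one step after 5 days, and nuclei were counted. Relative viability is the nuclei count for treated wells divided by that for vehicle wells, reported as medians of duplicate plates.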
# PC-3 [JPC-3] = system: PC-3 [JPC-3]
# Outline: as §1
# RERF-LC-KJ = system: RERF-LC-KJ
# Outline: as §1
# NCI-H1651 = system: NCI-H1651
# Outline: as §1
# NCI-H1395 = system: NCI-H1395
# Outline: as §1
# NCI-H1755 = system: NCI-H1755
# Outline: as §1
# NCI-H1793 = system: NCI-H1793
# Outline: as §1
# LOU-NH91 = system: LOU-NH91
# Outline: as §1
# NCI-H1944 = system: NCI-H1944
# Outline: as §1
# ABC-1 = system: ABC-1
# Outline: as §1
# LU99A = system: LU99A
# Outline: as §1
# LC-2-ad = system: LC-2-ad
# Outline: as §1
# NCI-H2170 = system: NCI-H2170
# Outline: as §1
# NCI-H2228 = system: NCI-H2228
# Outline: as §1
# NCI-H3122 = system: NCI-H3122
# Outline: as §1
# HCC-366 = system: HCC-366
# Outline: as §1
# UMC-11 = system: UMC-11
# Outline: as §1
# NCI-H460 = system: NCI-H460
# Outline: as §1
# NCI-H2405 = system: NCI-H2405
# Outline: as §1
# HCC-78 = system: HCC-78
# Outline: as §1
# NCI-H2087 = system: NCI-H2087
# Outline: as §1
structure (smiles),measurement,setting,value
O=c1cc(N2CCOCC2)oc2c(-c3cccc4c3sc3ccccc34)cccc12 + Cc1nc(NC(=O)N2CCC[C@H]2C(N)=O)sc1-c1ccnc(C(C)(C)C(F)(F)F)c1 [Alpelisib] (partner 2 µM),relative viability,CAL-12T; first compound 0.01 µM,1.29
same,relative viability,CAL-12T; first compound 0.03162 µM,1.1
same,relative viability,CAL-12T; first compound 0.1 µM,1.13
same,relative viability,CAL-12T; first compound 0.3162 µM,1.27
same,relative viability,CAL-12T; first compound 1 µM,1.1
same,relative viability,PC-3 [JPC-3]; first compound 0.01 µM,1.01
same,relative viability,PC-3 [JPC-3]; first compound 0.03162 µM,1.05
same,relative viability,PC-3 [JPC-3]; first compound 0.1 µM,1.02
same,relative viability,PC-3 [JPC-3]; first compound 0.3162 µM,1.02
same,relative viability,PC-3 [JPC-3]; first compound 1 µM,1.04
same,relative viability,RERF-LC-KJ; first compound 0.01 µM,0.834
same,relative viability,RERF-LC-KJ; first compound 0.03162 µM,0.892
same,relative viability,RERF-LC-KJ; first compound 0.1 µM,0.981
same,relative viability,RERF-LC-KJ; first compound 0.3162 µM,0.86
same,relative viability,RERF-LC-KJ; first compound 1 µM,0.9
same,relative viability,NCI-H1651; first compound 0.01 µM,0.924
same,relative viability,NCI-H1651; first compound 0.03162 µM,0.952
same,relative viability,NCI-H1651; first compound 0.1 µM,1.04
same,relative viability,NCI-H1651; first compound 0.3162 µM,0.968
same,relative viability,NCI-H1651; first compound 1 µM,1.01
same,relative viability,NCI-H1395; first compound 0.01 µM,1.1
same,relative viability,NCI-H1395; first compound 0.03162 µM,0.976
same,relative viability,NCI-H1395; first compound 0.1 µM,0.989
same,relative viability,NCI-H1395; first compound 0.3162 µM,1.09
same,relative viability,NCI-H1395; first compound 1 µM,0.956
same,relative viability,NCI-H1755; first compound 0.01 µM,0.952
same,relative viability,NCI-H1755; first compound 0.03162 µM,0.901
same,relative viability,NCI-H1755; first compound 0.1 µM,0.984
same,relative viability,NCI-H1755; first compound 0.3162 µM,0.866
same,relative viability,NCI-H1755; first compound 1 µM,0.894
same,relative viability,NCI-H1793; first compound 0.01 µM,0.607
same,relative viability,NCI-H1793; first compound 0.03162 µM,0.866
same,relative viability,NCI-H1793; first compound 0.1 µM,0.7
same,relative viability,NCI-H1793; first compound 0.3162 µM,0.705
same,relative viability,NCI-H1793; first compound 1 µM,0.484
same,relative viability,LOU-NH91; first compound 0.01 µM,0.656
same,relative viability,LOU-NH91; first compound 0.03162 µM,0.698
same,relative viability,LOU-NH91; first compound 0.1 µM,0.726
same,relative viability,LOU-NH91; first compound 0.3162 µM,0.759
same,relative viability,LOU-NH91; first compound 1 µM,0.69
same,relative viability,NCI-H1944; first compound 0.01 µM,0.814
same,relative viability,NCI-H1944; first compound 0.03162 µM,0.833
same,relative viability,NCI-H1944; first compound 0.1 µM,0.82
same,relative viability,NCI-H1944; first compound 0.3162 µM,0.847
same,relative viability,NCI-H1944; first compound 1 µM,0.801
same,relative viability,ABC-1; first compound 0.01 µM,1.11
same,relative viability,ABC-1; first compound 0.03162 µM,0.939
same,relative viability,ABC-1; first compound 0.1 µM,1.01
same,relative viability,ABC-1; first compound 0.3162 µM,0.883
same,relative viability,ABC-1; first compound 1 µM,0.857
same,relative viability,LU99A; first compound 0.01 µM,0.595
same,relative viability,LU99A; first compound 0.03162 µM,0.532
same,relative viability,LU99A; first compound 0.1 µM,0.521
same,relative viability,LU99A; first compound 0.3162 µM,0.598
same,relative viability,LU99A; first compound 1 µM,0.571
same,relative viability,LC-2-ad; first compound 0.01 µM,0.91
same,relative viability,LC-2-ad; first compound 0.1 µM,0.976
same,relative viability,LC-2-ad; first compound 0.3162 µM,0.839
same,relative viability,LC-2-ad; first compound 1 µM,0.906
same,relative viability,NCI-H2170; first compound 0.01 µM,0.83
same,relative viability,NCI-H2170; first compound 0.03162 µM,0.782
same,relative viability,NCI-H2170; first compound 0.1 µM,0.837
same,relative viability,NCI-H2170; first compound 0.3162 µM,0.817
same,relative viability,NCI-H2170; first compound 1 µM,0.735
same,relative viability,NCI-H2228; first compound 0.03162 µM,0.928
same,relative viability,NCI-H2228; first compound 0.1 µM,0.713
same,relative viability,NCI-H2228; first compound 0.3162 µM,0.877
same,relative viability,NCI-H2228; first compound 1 µM,0.481
same,relative viability,NCI-H3122; first compound 0.01 µM,0.868
same,relative viability,NCI-H3122; first compound 0.03162 µM,0.729
same,relative viability,NCI-H3122; first compound 0.1 µM,0.839
same,relative viability,NCI-H3122; first compound 0.3162 µM,0.756
same,relative viability,NCI-H3122; first compound 1 µM,0.713
same,relative viability,HCC-366; first compound 0.01 µM,0.386
same,relative viability,HCC-366; first compound 0.03162 µM,0.469
same,relative viability,HCC-366; first compound 0.1 µM,0.44
same,relative viability,HCC-366; first compound 0.3162 µM,0.372
same,relative viability,HCC-366; first compound 1 µM,0.367
same,relative viability,UMC-11; first compound 0.01 µM,0.995
same,relative viability,UMC-11; first compound 0.03162 µM,1.01
same,relative viability,UMC-11; first compound 0.1 µM,0.986
same,relative viability,UMC-11; first compound 0.3162 µM,0.979
same,relative viability,UMC-11; first compound 1 µM,0.872
same,relative viability,NCI-H460; first compound 0.01 µM,0.509
same,relative viability,NCI-H460; first compound 0.03162 µM,0.502
same,relative viability,NCI-H460; first compound 0.1 µM,0.495
same,relative viability,NCI-H460; first compound 0.3162 µM,0.373
same,relative viability,NCI-H460; first compound 1 µM,0.538
same,relative viability,NCI-H2405; first compound 0.01 µM,0.895
same,relative viability,NCI-H2405; first compound 0.03162 µM,0.885
same,relative viability,NCI-H2405; first compound 0.1 µM,0.838
same,relative viability,NCI-H2405; first compound 0.3162 µM,0.835
same,relative viability,NCI-H2405; first compound 1 µM,0.827
same,relative viability,HCC-78; first compound 0.01 µM,0.374
same,relative viability,HCC-78; first compound 0.03162 µM,0.305
same,relative viability,HCC-78; first compound 0.1 µM,0.299
same,relative viability,HCC-78; first compound 0.3162 µM,0.406
same,relative viability,HCC-78; first compound 1 µM,0.331
same,relative viability,NCI-H2087; first compound 0.01 µM,1.12
same,relative viability,NCI-H2087; first compound 0.03162 µM,1.02
same,relative viability,NCI-H2087; first compound 0.1 µM,1.13
same,relative viability,NCI-H2087; first compound 0.3162 µM,1.23
same,relative viability,NCI-H2087; first compound 1 µM,1.16
